Assay results published in the kinase profiling compilation of Christmann-Franck et al. (2016).

How the values were obtained:
Assay in all cases: KINOMEscan competition binding
Details in all cases: compound 10.0 µM
ACVR1 (human) = ACVR1 (human) (UniProt Q04771)
ACVRL1 (human) = ACVRL1 (human) (UniProt P37023)
AURKA (human) = AURKA (human) (UniProt O14965)
CAMK1G (human) = CAMK1G (human) (UniProt Q96NX5)
CDK19 (human) = CDK19 (human) (UniProt Q9BWU1)
CDK7 (human) = CDK7 (human) (UniProt P50613)
CDKL2 (human) = CDKL2 (human) (UniProt Q92772)
Chain of CDKL2 (human) (Q92772 whole entry, looked up): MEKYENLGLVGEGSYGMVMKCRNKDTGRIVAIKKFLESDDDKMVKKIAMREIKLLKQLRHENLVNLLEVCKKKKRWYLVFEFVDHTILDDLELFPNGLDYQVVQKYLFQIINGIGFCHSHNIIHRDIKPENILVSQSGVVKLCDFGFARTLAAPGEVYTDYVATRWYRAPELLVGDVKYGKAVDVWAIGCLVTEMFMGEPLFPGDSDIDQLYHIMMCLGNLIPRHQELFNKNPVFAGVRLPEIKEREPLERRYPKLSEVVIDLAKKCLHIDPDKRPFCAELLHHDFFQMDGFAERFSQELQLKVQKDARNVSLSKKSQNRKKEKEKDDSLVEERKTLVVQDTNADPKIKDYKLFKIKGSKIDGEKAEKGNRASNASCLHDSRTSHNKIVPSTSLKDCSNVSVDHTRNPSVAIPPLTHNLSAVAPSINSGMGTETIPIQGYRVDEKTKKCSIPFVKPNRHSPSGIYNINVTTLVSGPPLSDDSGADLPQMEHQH

CLK2 (human) = CLK2 (human) (UniProt P49760)
CSF1R (human) = CSF1R (human) (UniProt P07333)
CSNK1E (human) = CSNK1E (human) (UniProt P49674)
CSNK1G1 (human) = CSNK1G1 (human) (UniProt Q9HCP0)
DCLK1 (human) = DCLK1 (human) (UniProt O15075)
DDR2 (human) = DDR2 (human) (UniProt Q16832)
[1] = test system: EGFR (human), P00533 [G719S]
[2] = test system: EGFR (human), P00533 [L858R]
EPHA7 (human) = EPHA7 (human) (UniProt Q15375)
IRAK3 (human) = IRAK3 (human) (UniProt Q9Y616)
[3] = biological target: JAK1 JH2 pseudokinase (human) (UniProt P23458)
[4] = biological target: JAK3 JH1 catalytic (human) (UniProt P52333)
LATS2 (human) = LATS2 (human) (UniProt Q9NRM7)
Chain of LATS2 (human) (Q9NRM7 whole entry, looked up): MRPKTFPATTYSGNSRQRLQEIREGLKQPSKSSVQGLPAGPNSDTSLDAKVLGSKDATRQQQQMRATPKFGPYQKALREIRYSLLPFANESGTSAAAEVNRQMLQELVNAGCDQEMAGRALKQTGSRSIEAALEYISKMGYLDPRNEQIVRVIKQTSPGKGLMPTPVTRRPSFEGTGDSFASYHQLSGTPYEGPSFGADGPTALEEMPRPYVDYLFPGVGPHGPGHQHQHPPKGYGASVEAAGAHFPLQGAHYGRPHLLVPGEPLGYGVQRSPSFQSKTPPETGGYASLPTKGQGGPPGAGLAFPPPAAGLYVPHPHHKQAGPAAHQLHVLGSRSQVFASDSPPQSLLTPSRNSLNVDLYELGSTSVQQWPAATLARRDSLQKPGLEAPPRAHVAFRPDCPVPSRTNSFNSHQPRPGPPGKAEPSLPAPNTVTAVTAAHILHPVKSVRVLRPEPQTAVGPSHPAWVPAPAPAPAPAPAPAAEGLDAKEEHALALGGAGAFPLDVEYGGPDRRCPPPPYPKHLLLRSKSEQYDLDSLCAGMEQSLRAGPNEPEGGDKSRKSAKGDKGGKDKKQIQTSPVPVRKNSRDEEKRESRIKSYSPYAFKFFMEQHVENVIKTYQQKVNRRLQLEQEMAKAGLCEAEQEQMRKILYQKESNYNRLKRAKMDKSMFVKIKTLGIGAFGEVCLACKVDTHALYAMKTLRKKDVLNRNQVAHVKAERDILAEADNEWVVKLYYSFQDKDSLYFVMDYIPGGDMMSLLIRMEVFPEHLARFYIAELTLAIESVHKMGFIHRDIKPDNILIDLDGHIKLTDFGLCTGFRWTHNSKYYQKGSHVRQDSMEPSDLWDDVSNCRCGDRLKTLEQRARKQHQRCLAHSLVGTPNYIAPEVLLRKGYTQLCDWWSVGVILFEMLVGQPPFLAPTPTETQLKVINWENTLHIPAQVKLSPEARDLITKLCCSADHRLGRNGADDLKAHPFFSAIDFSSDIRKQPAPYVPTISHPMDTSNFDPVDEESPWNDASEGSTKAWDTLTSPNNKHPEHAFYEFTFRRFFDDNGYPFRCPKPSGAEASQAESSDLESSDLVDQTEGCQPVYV

MAP2K1 (human) = MAP2K1 (human) (UniProt Q02750)
MAP2K3 (human) = MAP2K3 (human) (UniProt P46734)
MAP4K4 (human) = MAP4K4 (human) (UniProt O95819)
Chain of MAP4K4 (human) (O95819 whole entry, looked up): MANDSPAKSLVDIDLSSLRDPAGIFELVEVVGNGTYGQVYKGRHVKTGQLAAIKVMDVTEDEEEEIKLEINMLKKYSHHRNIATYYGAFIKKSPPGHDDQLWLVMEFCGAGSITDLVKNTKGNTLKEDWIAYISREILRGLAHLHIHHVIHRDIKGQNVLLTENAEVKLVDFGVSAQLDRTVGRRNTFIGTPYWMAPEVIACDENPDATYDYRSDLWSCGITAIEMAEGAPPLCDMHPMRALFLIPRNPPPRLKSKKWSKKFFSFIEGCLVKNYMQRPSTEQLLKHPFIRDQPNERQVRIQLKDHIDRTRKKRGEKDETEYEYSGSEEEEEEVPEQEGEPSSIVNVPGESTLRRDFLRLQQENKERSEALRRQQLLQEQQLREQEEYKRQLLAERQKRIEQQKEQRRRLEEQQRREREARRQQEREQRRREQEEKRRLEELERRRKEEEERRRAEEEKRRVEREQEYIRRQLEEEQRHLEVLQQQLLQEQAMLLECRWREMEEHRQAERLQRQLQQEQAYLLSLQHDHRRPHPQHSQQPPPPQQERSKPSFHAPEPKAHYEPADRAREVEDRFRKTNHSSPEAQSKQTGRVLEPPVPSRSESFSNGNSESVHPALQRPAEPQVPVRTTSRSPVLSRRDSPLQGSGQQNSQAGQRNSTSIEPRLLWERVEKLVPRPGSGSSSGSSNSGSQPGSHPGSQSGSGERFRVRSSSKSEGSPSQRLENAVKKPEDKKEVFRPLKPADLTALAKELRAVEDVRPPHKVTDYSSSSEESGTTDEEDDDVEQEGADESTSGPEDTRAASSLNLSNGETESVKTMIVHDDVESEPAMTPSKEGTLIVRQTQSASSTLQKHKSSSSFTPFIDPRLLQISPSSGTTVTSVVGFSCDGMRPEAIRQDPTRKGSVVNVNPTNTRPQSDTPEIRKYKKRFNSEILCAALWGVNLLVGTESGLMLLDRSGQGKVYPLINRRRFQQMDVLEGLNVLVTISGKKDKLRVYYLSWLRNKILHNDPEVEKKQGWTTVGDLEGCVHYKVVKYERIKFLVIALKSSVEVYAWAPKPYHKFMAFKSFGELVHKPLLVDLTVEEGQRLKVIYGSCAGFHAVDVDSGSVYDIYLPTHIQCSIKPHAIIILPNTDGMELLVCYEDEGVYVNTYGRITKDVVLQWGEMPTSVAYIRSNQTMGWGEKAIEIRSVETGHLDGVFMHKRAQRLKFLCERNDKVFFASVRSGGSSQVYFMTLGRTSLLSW

MAP4K5 (human) = MAP4K5 (human) (UniProt Q9Y4K4)
MAPK11 (human) = MAPK11 (human) (UniProt Q15759)
MARK1 (human) = MARK1 (human) (UniProt Q9P0L2)
MYO3A (human) = MYO3A (human) (UniProt Q8NEV4)
NTRK2 (human) = NTRK2 (human) (UniProt Q16620)
PAK1 (human) = PAK1 (human) (UniProt Q13153)
PDGFRA (human) = PDGFRA (human) (UniProt P16234)
PHKG1 (human) = PHKG1 (human) (UniProt Q16816)
PIP4K2B (human) = PIP4K2B (human) (UniProt P78356)
PTK2B (human) = PTK2B (human) (UniProt Q14289)
[5] = test system: RET (human), P07949 [V804M]
RIPK2 (human) = RIPK2 (human) (UniProt O43353)
RPS6KA1 KD2 (human) = RPS6KA1 KD2 (human) (UniProt Q15418)
RPS6KA5 KD1 (human) = RPS6KA5 KD1 (human) (UniProt O75582)
Chain of RPS6KA5 KD1 (human) (O75582 whole entry, looked up): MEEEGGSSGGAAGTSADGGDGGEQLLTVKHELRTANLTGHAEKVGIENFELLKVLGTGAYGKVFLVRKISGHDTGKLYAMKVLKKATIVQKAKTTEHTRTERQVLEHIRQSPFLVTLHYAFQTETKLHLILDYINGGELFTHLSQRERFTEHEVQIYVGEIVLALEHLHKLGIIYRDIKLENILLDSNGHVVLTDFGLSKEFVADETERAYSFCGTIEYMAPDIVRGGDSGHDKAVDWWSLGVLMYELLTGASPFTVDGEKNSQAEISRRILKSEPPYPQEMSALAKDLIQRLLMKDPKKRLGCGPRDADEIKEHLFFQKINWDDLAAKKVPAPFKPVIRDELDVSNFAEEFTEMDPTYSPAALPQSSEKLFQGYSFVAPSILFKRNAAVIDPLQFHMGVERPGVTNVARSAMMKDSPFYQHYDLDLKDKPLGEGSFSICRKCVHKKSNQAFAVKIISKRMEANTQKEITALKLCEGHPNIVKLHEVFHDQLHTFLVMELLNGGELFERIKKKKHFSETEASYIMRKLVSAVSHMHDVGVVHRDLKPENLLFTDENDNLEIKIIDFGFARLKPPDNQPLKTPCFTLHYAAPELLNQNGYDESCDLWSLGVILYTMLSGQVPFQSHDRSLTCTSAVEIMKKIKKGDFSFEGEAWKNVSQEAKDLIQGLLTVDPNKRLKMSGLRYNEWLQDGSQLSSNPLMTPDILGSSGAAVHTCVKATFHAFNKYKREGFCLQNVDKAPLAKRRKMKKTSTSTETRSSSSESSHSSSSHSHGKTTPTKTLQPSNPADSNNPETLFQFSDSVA

STK17B (human) = STK17B (human) (UniProt O94768)
STK32B (human) = STK32B (human) (UniProt Q9NY57)
STK33 (human) = STK33 (human) (UniProt Q9BYT3)
TNNI3K (human) = TNNI3K (human) (UniProt Q59H18)
Chain of TNNI3K (human) (Q59H18 whole entry, looked up): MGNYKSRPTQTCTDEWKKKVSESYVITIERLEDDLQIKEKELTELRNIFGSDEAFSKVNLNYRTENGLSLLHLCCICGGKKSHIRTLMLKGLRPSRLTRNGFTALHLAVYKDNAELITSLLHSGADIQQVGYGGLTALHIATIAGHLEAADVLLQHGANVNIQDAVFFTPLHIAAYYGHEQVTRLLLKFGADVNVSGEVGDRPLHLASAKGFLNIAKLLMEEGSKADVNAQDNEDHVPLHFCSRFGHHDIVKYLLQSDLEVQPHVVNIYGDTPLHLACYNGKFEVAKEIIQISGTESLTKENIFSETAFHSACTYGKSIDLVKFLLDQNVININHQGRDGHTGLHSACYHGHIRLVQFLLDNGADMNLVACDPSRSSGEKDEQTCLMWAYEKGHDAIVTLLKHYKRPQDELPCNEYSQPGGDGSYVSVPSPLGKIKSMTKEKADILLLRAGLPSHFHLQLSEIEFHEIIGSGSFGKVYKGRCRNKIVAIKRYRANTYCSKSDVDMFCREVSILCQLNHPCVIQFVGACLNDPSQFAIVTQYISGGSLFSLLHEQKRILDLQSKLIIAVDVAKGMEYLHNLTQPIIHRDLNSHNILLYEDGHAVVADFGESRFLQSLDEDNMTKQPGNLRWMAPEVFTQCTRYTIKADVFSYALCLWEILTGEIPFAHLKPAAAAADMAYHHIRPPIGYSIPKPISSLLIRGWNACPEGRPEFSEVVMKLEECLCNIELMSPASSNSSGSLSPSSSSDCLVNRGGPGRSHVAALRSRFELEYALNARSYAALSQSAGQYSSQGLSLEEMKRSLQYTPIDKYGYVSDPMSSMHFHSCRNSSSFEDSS

ULK2 (human) = ULK2 (human) (UniProt Q8IYT8)

Chain of CDK19 (human) (Q9BWU1 whole entry, looked up): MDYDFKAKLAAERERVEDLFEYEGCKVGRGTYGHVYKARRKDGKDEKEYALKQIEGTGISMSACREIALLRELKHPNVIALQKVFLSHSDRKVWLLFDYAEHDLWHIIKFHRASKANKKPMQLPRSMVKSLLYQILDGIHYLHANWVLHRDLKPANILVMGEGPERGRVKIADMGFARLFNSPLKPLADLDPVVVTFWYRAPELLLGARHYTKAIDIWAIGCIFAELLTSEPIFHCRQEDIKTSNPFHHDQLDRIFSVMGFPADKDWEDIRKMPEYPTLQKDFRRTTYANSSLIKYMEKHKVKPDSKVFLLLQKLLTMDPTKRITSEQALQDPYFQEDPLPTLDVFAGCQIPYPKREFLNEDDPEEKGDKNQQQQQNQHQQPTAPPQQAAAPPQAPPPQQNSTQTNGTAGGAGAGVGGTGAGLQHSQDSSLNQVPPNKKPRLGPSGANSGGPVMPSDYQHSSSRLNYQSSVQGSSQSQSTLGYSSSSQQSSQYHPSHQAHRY

CCN1CCN(Cc2ccc(NC(=O)c3ccc(C)c(/C=C/c4cnc(Nc5cc(N6CCNCC6)nc(C)n5)cn4)c3)cc2C(F)(F)F)CC1
kinase still bound, per cent of control (ACVR1 (human)): 100%
kinase still bound, per cent of control (ACVRL1 (human)): 79%
kinase still bound, per cent of control (AURKA (human)): 78%
kinase still bound, per cent of control (CAMK1G (human)): 99%
kinase still bound, per cent of control (CDK19 (human)): 3.5%
kinase still bound, per cent of control (CDK7 (human)): 3%
kinase still bound, per cent of control (CDKL2 (human)): 0.15%
kinase still bound, per cent of control (CLK2 (human)): 86%
kinase still bound, per cent of control (CSF1R (human)): 1.1%
kinase still bound, per cent of control (CSNK1E (human)): 100%
kinase still bound, per cent of control (CSNK1G1 (human)): 100%
kinase still bound, per cent of control (DCLK1 (human)): 97%
kinase still bound, per cent of control (DDR2 (human)): 0%
kinase still bound, per cent of control [1]: 5.4%
kinase still bound, per cent of control [2]: 3.4%
kinase still bound, per cent of control (EPHA7 (human)): 76%
kinase still bound, per cent of control (IRAK3 (human)): 87%
kinase still bound, per cent of control [3]: 94%
kinase still bound, per cent of control [4]: 3.2%
kinase still bound, per cent of control (LATS2 (human)): 36%
kinase still bound, per cent of control (MAP2K1 (human)): 35%
kinase still bound, per cent of control (MAP2K3 (human)): 100%
kinase still bound, per cent of control (MAP4K4 (human)): 0.1%
kinase still bound, per cent of control (MAP4K5 (human)): 0.55%
kinase still bound, per cent of control (MAPK11 (human)): 3.2%
kinase still bound, per cent of control (MARK1 (human)): 100%
kinase still bound, per cent of control (MYO3A (human)): 60%
kinase still bound, per cent of control (NTRK2 (human)): 1%
kinase still bound, per cent of control (PAK1 (human)): 87%
kinase still bound, per cent of control (PDGFRA (human)): 2.8%
kinase still bound, per cent of control (PHKG1 (human)): 100%
kinase still bound, per cent of control (PIP4K2B (human)): 83%
kinase still bound, per cent of control (PTK2B (human)): 36%
kinase still bound, per cent of control [5]: 0.15%
kinase still bound, per cent of control (RIPK2 (human)): 5.4%
kinase still bound, per cent of control (RPS6KA1 KD2 (human)): 13%
kinase still bound, per cent of control (RPS6KA5 KD1 (human)): 100%
kinase still bound, per cent of control (STK17B (human)): 2%
kinase still bound, per cent of control (STK32B (human)): 100%
kinase still bound, per cent of control (STK33 (human)): 90%
kinase still bound, per cent of control (TNNI3K (human)): 12%
kinase still bound, per cent of control (ULK2 (human)): 32%

CCN1CCN(Cc2ccc(NC(=O)c3ccc(C)c(Oc4ccnc5[nH]ccc45)c3)cc2C(F)(F)F)CC1
kinase still bound, per cent of control (CAMK1G (human)): 20%
kinase still bound, per cent of control (CDK19 (human)): 0.1%
kinase still bound, per cent of control (CDK7 (human)): 2.4%
kinase still bound, per cent of control (CDKL2 (human)): 0.9%
kinase still bound, per cent of control (CSF1R (human)): 0%
kinase still bound, per cent of control (DDR2 (human)): 5.1%
kinase still bound, per cent of control [1]: 14%
kinase still bound, per cent of control [2]: 14%
kinase still bound, per cent of control [3]: 11%
kinase still bound, per cent of control [4]: 11%
kinase still bound, per cent of control (LATS2 (human)): 13%
kinase still bound, per cent of control (MAP4K4 (human)): 0%
kinase still bound, per cent of control (MAPK11 (human)): 0%
kinase still bound, per cent of control (MYO3A (human)): 6.4%
kinase still bound, per cent of control (PDGFRA (human)): 0.6%
kinase still bound, per cent of control (PTK2B (human)): 2.1%
kinase still bound, per cent of control [5]: 1%
kinase still bound, per cent of control (RPS6KA5 KD1 (human)): 4.7%
kinase still bound, per cent of control (TNNI3K (human)): 4.8%

COc1cc(N2CCC(N3CCN(C)CC3)CC2)ccc1Nc1ncc(Cl)c(Nc2ccccc2S(=O)(=O)C(C)C)n1
kinase still bound, per cent of control (ACVR1 (human)): 0%
kinase still bound, per cent of control (ACVRL1 (human)): 1.7%
kinase still bound, per cent of control (AURKA (human)): 0%
kinase still bound, per cent of control (CDK19 (human)): 40%
kinase still bound, per cent of control (CDK7 (human)): 0.15%
kinase still bound, per cent of control (CDKL2 (human)): 40%
kinase still bound, per cent of control (CLK2 (human)): 0%
kinase still bound, per cent of control (CSF1R (human)): 0%
kinase still bound, per cent of control (CSNK1E (human)): 40%
kinase still bound, per cent of control (CSNK1G1 (human)): 40%
kinase still bound, per cent of control (DCLK1 (human)): 0%
kinase still bound, per cent of control (DDR2 (human)): 14%
kinase still bound, per cent of control [1]: 9.6%
kinase still bound, per cent of control [2]: 0.1%
kinase still bound, per cent of control (EPHA7 (human)): 0.4%
kinase still bound, per cent of control (IRAK3 (human)): 0.15%
kinase still bound, per cent of control [3]: 4.2%
kinase still bound, per cent of control [4]: 2%
kinase still bound, per cent of control (LATS2 (human)): 17%
kinase still bound, per cent of control (MAP2K1 (human)): 3.6%
kinase still bound, per cent of control (MAP2K3 (human)): 0.8%
kinase still bound, per cent of control (MAP4K4 (human)): 5.4%
kinase still bound, per cent of control (MAP4K5 (human)): 0.3%
kinase still bound, per cent of control (MAPK11 (human)): 40%
kinase still bound, per cent of control (MARK1 (human)): 0%
kinase still bound, per cent of control (MYO3A (human)): 0.25%
kinase still bound, per cent of control (NTRK2 (human)): 8.4%
kinase still bound, per cent of control (PAK1 (human)): 4.8%
kinase still bound, per cent of control (PDGFRA (human)): 0.85%
kinase still bound, per cent of control (PHKG1 (human)): 0.1%
kinase still bound, per cent of control (PIP4K2B (human)): 11%
kinase still bound, per cent of control (PTK2B (human)): 0%
kinase still bound, per cent of control (RIPK2 (human)): 40%
kinase still bound, per cent of control (RPS6KA1 KD2 (human)): 10%
kinase still bound, per cent of control (RPS6KA5 KD1 (human)): 40%
kinase still bound, per cent of control (STK17B (human)): 40%
kinase still bound, per cent of control (STK32B (human)): 0.2%
kinase still bound, per cent of control (STK33 (human)): 0.1%
kinase still bound, per cent of control (TNNI3K (human)): 15%
kinase still bound, per cent of control (ULK2 (human)): 1.1%
